# From patent publication US9879041B2, “Saccharide dendritic cluster compounds as inhibitors of BACE-1” (Victoria Link Limited, priority 2012, dated 2018)
# Legend:
# Aβ1-40 = assay: Brain slice assay, soluble Aβ1-40 in medium by ELISA; type: cell-based, Transgenic TG2576 mice; details: TG2576 mouse brain slices; 1, 10 and 100 μg/ml; 96 hours vs. 48 hours
# Description: Transgenic TG2576 mice expressing the human SWE-mutated amyloid precursor protein are sacrificed by cervical dislocation at 8-10 months of age. The brain is removed and 400 μm coronal sections are obtained using a manual tissue chopper (Leica Microsystems). Slices are washed briefly in HBSS (Hank balanced salt solution, Life Technologies) supplemented with 4.5 mg/ml glucose (Sigma-Aldrich) and 3.75 μg/ml amphotericin B (Sigma-Aldrich) and transferred to a transwell plate (Costar 3396 HTS 24 well transwell plate with 0.4 μm polycarbonate membrane) in 1 ml of 50% MEM (minimal essential medium, Life Technologies) supplemented with 25% heat-inactivated horse serum (Life Technologies), 25% HBSS, 0.5 mM glutamine (Life Technologies), 4.5 mg/ml glucose and 3.75 μg/ml amphotericin B. Slices are incubated 48 hours at 37 C, 5% CO2. […] Soluble Aμ1-40 in the medium is quantified using a SensoLyte™ Anti-Human βeta-Amyloid (1-40) ELISA kit (Anaspec) in accordance with the manufacturer's instructions. […] The color reaction is stopped with 50 μl of Stop Solution and the plate is read at 450 nm using an absorbance plate reader (Thermo Multiskan EX). The amount of Aβ-40 is quantified by reference to a standard curve of Aβ1-40 (supplied in the SensoLyte™ kit). Data are expressed as a percentage of the Aβ1-40 present at 96 hours vs. 48 hours for each condition.
# recombinant human BACE-1 = target: T1, recombinant human BACE-1 (Homo sapiens, UniProt P56817); assay: BACE-1 inhibition by in vitro FRET peptide cleavage assay; type: biochemical; details: pH 4.5, 1 h, 25° C.
# T1 construct: purchased R & D Systems 931-AS
# T1 sequence (P56817 46-501): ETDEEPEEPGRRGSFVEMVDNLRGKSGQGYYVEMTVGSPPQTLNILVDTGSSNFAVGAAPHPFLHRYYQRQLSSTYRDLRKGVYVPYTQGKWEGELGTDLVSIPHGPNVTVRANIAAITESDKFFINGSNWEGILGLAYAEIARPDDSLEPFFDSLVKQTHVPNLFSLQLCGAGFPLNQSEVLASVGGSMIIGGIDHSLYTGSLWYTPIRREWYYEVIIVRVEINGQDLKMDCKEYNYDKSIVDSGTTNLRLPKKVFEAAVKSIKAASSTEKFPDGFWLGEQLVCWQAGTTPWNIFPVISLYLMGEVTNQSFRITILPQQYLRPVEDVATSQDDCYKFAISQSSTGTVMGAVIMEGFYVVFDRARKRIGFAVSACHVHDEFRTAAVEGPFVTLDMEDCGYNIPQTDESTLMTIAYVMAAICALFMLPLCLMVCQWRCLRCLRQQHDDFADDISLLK
# Description: The ability of compounds of the invention to inhibit BACE-1 cleavage of APP is assessed using a fluorescent resonance energy transfer (FRET) peptide cleavage assay employing the FRET peptide HiLyte 488-Glu-Val-Asn-Leu-Asp-Ala-Glu-Phe-Lys(QXL520)-OH (Anaspec, Inc., CA, USA; Cat no. 60604-01). When intact, the amino terminal fluorophore is quenched, but upon enzymatic cleavage the fluorophore is released from quencher and fluoresces (520 nm). Assays are performed in triplicate in 96 well black plates (20 mM sodium acetate, 0.1% Triton-X-100, pH 4.5; 2.2 ng peptide per well and 25 ng/well of recombinant human BACE-1 (R & D Systems Cat no. 931-AS). The appropriate controls for enzyme activity (substrate plus enzyme, and substrate only) are employed and plates are incubated (1 h, 25° C., with activity stopped with 2.5 M sodium acetate). Compounds of the invention are added in the concentration range from 100-0.0001 μg/mL. Fluorescence 480ex/520em is measured on a Polarstar plate reader (BMG LabTechnologies, UK) and data are analysed by plotting log10 concentration of compound against percent inhibition and fitting a logistic dose response sigmoidal curve using OriginPro 8 (OriginLabs, Mass, USA).
# bovine Factor Xa = target: T2, bovine Factor Xa (Bos taurus, UniProt P00743); assay: Factor Xa anticoagulant assay (antithrombin-III mediated inactivation of Factor Xa); type: biochemical; details: dose range 0.004 to 50 μg/ml
# T2 construct: purchased Thermo Scientific 32521
# T2 sequence (P01008 33-464 partner): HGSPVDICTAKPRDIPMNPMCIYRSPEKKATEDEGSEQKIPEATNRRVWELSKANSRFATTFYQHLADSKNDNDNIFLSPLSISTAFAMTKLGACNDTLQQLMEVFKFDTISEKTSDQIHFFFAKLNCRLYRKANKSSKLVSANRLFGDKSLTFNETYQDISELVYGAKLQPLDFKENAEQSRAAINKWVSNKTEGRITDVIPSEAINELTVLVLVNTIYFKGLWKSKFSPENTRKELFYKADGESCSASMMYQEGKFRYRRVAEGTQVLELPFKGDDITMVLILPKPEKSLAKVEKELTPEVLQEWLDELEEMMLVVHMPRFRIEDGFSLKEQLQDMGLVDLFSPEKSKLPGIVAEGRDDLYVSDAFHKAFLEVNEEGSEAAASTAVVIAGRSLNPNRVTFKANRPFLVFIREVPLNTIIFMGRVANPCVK
# T2 sequence (P00743 234-492 limits assumed): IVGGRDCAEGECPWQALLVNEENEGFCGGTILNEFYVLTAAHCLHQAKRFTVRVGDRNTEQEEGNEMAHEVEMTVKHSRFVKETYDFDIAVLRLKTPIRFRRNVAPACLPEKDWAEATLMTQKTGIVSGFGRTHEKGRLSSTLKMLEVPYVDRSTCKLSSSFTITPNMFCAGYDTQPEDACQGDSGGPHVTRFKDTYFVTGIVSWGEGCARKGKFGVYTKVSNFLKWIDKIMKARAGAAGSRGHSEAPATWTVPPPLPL
# Description: The plate is incubated for two minutes at 37° C. […] 19 μl of 2.5 mM chromogenic substrate (American Diagnostica Inc. Spectrozyme FXa Product No 222L) in assay buffer is added to each well and incubated for 2 hours at 37° C., followed by addition of 5 μl of 30% acetic acid to each well. Absorbance at 405 nm is read on a multiplate reader.
Structure (SMILES),ability to lower amounts of Aβ1-40 in brain slices (Aβ1-40),IC50 (recombinant human BACE-1) [nM],"ability to accelerate antithrombin-III mediated inactivation of Factor Xa, as measured by cleavage of a peptide substrate (bovine Factor Xa)"
CC(=O)NC1C(OC2C(C(=O)O)OC(OCCCCCCNC(=O)CCCCCCCNC(=O)CCOCC(COCCC(=O)NCCCCCCCC(=O)NCCCCCCOC3OC(C(=O)O)C(OC4OC(COS(=O)(=O)O)C(O)C(O)C4NC(C)=O)C(O)C3O)(COCCC(=O)NCCCCCCCC(=O)NCCCCCCOC3OC(C(=O)O)C(OC4OC(COS(=O)(=O)O)C(O)C(O)C4NC(C)=O)C(O)C3O)COCCC(=O)NCCCCCCCC(=O)NCCCCCCOC3OC(C(=O)O)C(OC4OC(COS(=O)(=O)O)C(O)C(O)C4NC(C)=O)C(O)C3O)C(O)C2O)OC(COS(=O)(=O)O)C(O)C1O (stereo not shown) [Compound 18a],demonstrate the ability to lower amounts of Aβ1-40,–,–
CC(=O)NC1C(OC2C(C(=O)O)OC(OCCCCCCNC(=O)CCCCCCCNC(=O)CCOCC(COCCC(=O)NCCCCCCCC(=O)NCCCCCCOC3OC(C(=O)O)C(OC4OC(COS(=O)(=O)O)C(O)C(O)C4NC(C)=O)C(O)C3O)(COCCC(=O)NCCCCCCCC(=O)NCCCCCCOC3OC(C(=O)O)C(OC4OC(COS(=O)(=O)O)C(O)C(O)C4NC(C)=O)C(O)C3O)COCCC(=O)NCCCCCCCC(=O)NCCCCCCOC3OC(C(=O)O)C(OC4OC(COS(=O)(=O)O)C(O)C(O)C4NC(C)=O)C(O)C3O)C(O)C2O)OC(COS(=O)(=O)O)C(O)C1O (stereo not shown) [Compound 18b],–,~3100,do not display any measurable ability
CC(=O)NC1C(OC2C(C(=O)O)OC(OC3C(COS(=O)(=O)O)OC(OC4C(C(=O)O)OC(OCCCCCCNC(=O)CCCCCCCNC(=O)CCOCC(COCCC(=O)NCCCCCCCC(=O)NCCCCCCOC5OC(C(=O)O)C(OC6OC(COS(=O)(=O)O)C(OC7OC(C(=O)O)C(OC8OC(COS(=O)(=O)O)C(O)C(O)C8NC(C)=O)C(O)C7O)C(O)C6NC(C)=O)C(O)C5O)(COCCC(=O)NCCCCCCCC(=O)NCCCCCCOC5OC(C(=O)O)C(OC6OC(COS(=O)(=O)O)C(OC7OC(C(=O)O)C(OC8OC(COS(=O)(=O)O)C(O)C(O)C8NC(C)=O)C(O)C7O)C(O)C6NC(C)=O)C(O)C5O)COCCC(=O)NCCCCCCCC(=O)NCCCCCCOC5OC(C(=O)O)C(OC6OC(COS(=O)(=O)O)C(OC7OC(C(=O)O)C(OC8OC(COS(=O)(=O)O)C(O)C(O)C8NC(C)=O)C(O)C7O)C(O)C6NC(C)=O)C(O)C5O)C(O)C4O)C(NC(C)=O)C3O)C(O)C2O)OC(COS(=O)(=O)O)C(O)C1O (stereo not shown) [Compound 18c],–,~39.5,do not display any measurable ability
CC(=O)NC1C(OCCCCCCNC(=O)CCOCC(COCCC(=O)NCCCCCCOC2OC(COS(=O)(=O)O)C(O)C(O)C2NC(C)=O)(COCCC(=O)NCCCCCCOC2OC(COS(=O)(=O)O)C(O)C(O)C2NC(C)=O)COCCC(=O)NCCCCCCOC2OC(COS(=O)(=O)O)C(O)C(O)C2NC(C)=O)OC(COS(=O)(=O)O)C(O)C1O (stereo not shown) [Compound 18e],–,~25600,do not display any measurable ability
CC(=O)NC1C(OCCCCCCNC(=O)CCCCCCCNC(=O)CCOCC(COCCC(=O)NCCCCCCCC(=O)NCCCCCCOC2OC(COS(=O)(=O)O)C(O)C(O)C2NC(C)=O)(COCCC(=O)NCCCCCCCC(=O)NCCCCCCOC2OC(COS(=O)(=O)O)C(O)C(O)C2NC(C)=O)COCCC(=O)NCCCCCCCC(=O)NCCCCCCOC2OC(COS(=O)(=O)O)C(O)C(O)C2NC(C)=O)OC(COS(=O)(=O)O)C(O)C1O (stereo not shown) [Compound 18h],–,794 to 1980,do not display any measurable ability
CC(=O)NC1C(OC2C(C(=O)O)OC(OCCCCCCNC(=O)CCCCCCCNC(=O)CCOCC(COCCC(=O)NCCCCCCCC(=O)NCCCCCCOC3OC(C(=O)O)C(OC4OC(COS(=O)(=O)O)C(O)C(O)C4NC(C)=O)C(O)C3OS(=O)(=O)O)(COCCC(=O)NCCCCCCCC(=O)NCCCCCCOC3OC(C(=O)O)C(OC4OC(COS(=O)(=O)O)C(O)C(O)C4NC(C)=O)C(O)C3OS(=O)(=O)O)COCCC(=O)NCCCCCCCC(=O)NCCCCCCOC3OC(C(=O)O)C(OC4OC(COS(=O)(=O)O)C(O)C(O)C4NC(C)=O)C(O)C3OS(=O)(=O)O)C(OS(=O)(=O)O)C2O)OC(COS(=O)(=O)O)C(O)C1O (stereo not shown) [Compound 20a],–,~14.1,–
CC(=O)NC1C(OC2C(C(=O)O)OC(OCCCCCCNC(=O)CCCCCCCNC(=O)CCOCC(COCCC(=O)NCCCCCCCC(=O)NCCCCCCOC3OC(C(=O)O)C(OC4OC(COS(=O)(=O)O)C(O)C(O)C4NC(C)=O)C(O)C3OS(=O)(=O)O)(COCCC(=O)NCCCCCCCC(=O)NCCCCCCOC3OC(C(=O)O)C(OC4OC(COS(=O)(=O)O)C(O)C(O)C4NC(C)=O)C(O)C3OS(=O)(=O)O)COCCC(=O)NCCCCCCCC(=O)NCCCCCCOC3OC(C(=O)O)C(OC4OC(COS(=O)(=O)O)C(O)C(O)C4NC(C)=O)C(O)C3OS(=O)(=O)O)C(OS(=O)(=O)O)C2O)OC(COS(=O)(=O)O)C(O)C1O (stereo not shown) [Compound 20b],–,~56.4,do not display any measurable ability
CC(=O)NC1C(OC2C(C(=O)O)OC(OC3C(COS(=O)(=O)O)OC(OC4C(C(=O)O)OC(OCCCCCCNC(=O)CCCCCCCNC(=O)CCOCC(COCCC(=O)NCCCCCCCC(=O)NCCCCCCOC5OC(C(=O)O)C(OC6OC(COS(=O)(=O)O)C(OC7OC(C(=O)O)C(OC8OC(COS(=O)(=O)O)C(O)C(O)C8NC(C)=O)C(O)C7OS(=O)(=O)O)C(O)C6NC(C)=O)C(O)C5OS(=O)(=O)O)(COCCC(=O)NCCCCCCCC(=O)NCCCCCCOC5OC(C(=O)O)C(OC6OC(COS(=O)(=O)O)C(OC7OC(C(=O)O)C(OC8OC(COS(=O)(=O)O)C(O)C(O)C8NC(C)=O)C(O)C7OS(=O)(=O)O)C(O)C6NC(C)=O)C(O)C5OS(=O)(=O)O)COCCC(=O)NCCCCCCCC(=O)NCCCCCCOC5OC(C(=O)O)C(OC6OC(COS(=O)(=O)O)C(OC7OC(C(=O)O)C(OC8OC(COS(=O)(=O)O)C(O)C(O)C8NC(C)=O)C(O)C7OS(=O)(=O)O)C(O)C6NC(C)=O)C(O)C5OS(=O)(=O)O)C(OS(=O)(=O)O)C4O)C(NC(C)=O)C3O)C(OS(=O)(=O)O)C2O)OC(COS(=O)(=O)O)C(O)C1O (stereo not shown) [Compound 20c],–,~1.75,do not display any measurable ability
O=C(CCCCCCCNC(=O)CCOCC(COCCC(=O)NCCCCCCCC(=O)NCCCCCCOC1OC(C(=O)O)C(OC2OC(COS(=O)(=O)O)C(OC3OC(C(=O)O)C(OC4OC(COS(=O)(=O)O)C(O)C(O)C4NS(=O)(=O)O)C(O)C3OS(=O)(=O)O)C(O)C2NS(=O)(=O)O)C(O)C1OS(=O)(=O)O)(COCCC(=O)NCCCCCCCC(=O)NCCCCCCOC1OC(C(=O)O)C(OC2OC(COS(=O)(=O)O)C(OC3OC(C(=O)O)C(OC4OC(COS(=O)(=O)O)C(O)C(O)C4NS(=O)(=O)O)C(O)C3OS(=O)(=O)O)C(O)C2NS(=O)(=O)O)C(O)C1OS(=O)(=O)O)COCCC(=O)NCCCCCCCC(=O)NCCCCCCOC1OC(C(=O)O)C(OC2OC(COS(=O)(=O)O)C(OC3OC(C(=O)O)C(OC4OC(COS(=O)(=O)O)C(O)C(O)C4NS(=O)(=O)O)C(O)C3OS(=O)(=O)O)C(O)C2NS(=O)(=O)O)C(O)C1OS(=O)(=O)O)NCCCCCCOC1OC(C(=O)O)C(OC2OC(COS(=O)(=O)O)C(OC3OC(C(=O)O)C(OC4OC(COS(=O)(=O)O)C(O)C(O)C4NS(=O)(=O)O)C(O)C3OS(=O)(=O)O)C(O)C2NS(=O)(=O)O)C(O)C1OS(=O)(=O)O (stereo not shown) [Compound 22a],–,~1.67,do not display any measurable ability
